Assay results from patent US20250325543A1, “EGFR TKIs FOR USE IN THE TREATMENT OF NON-SMALL LUNG CANCER” (ASTRAZENECA AB, priority 2020, published 2025).

Legend:
[1] = system: stage IB-IIIA EGFRm NSCLC patients; assay: ADAURA phase 3 double-blind, randomized, placebo-controlled study of adjuvant AZD9291 after complete tumour resection; format: in vivo, human; conditions: for DFS HR (95% CI) / reduction in the risk of disease recurrence or death: osimertinib vs placebo
Description: Adjuvant chemotherapy should have consisted of a platinum based doublet given for a maximum of 4 cycles.
Patients were randomised 1:1, to receive either AZD9291 or placebo. […] Patients were randomised within 10 weeks following complete surgical resection if adjuvant chemotherapy was not administered, within 26 weeks following surgery if adjuvant chemotherapy was administered.
Accounting for patients who are found to have wild type EGFR, sample attrition and 10% screen fail rate for other reasons, it was estimated that approximately 3200 patients would be screened to randomize approximately 700 patients. Approximately 60% of patients were recruited from Asia and 40% from non-Asian countries. The proportion of patients randomized with stage 1B cancer was approximately 30% and the proportion of patients randomized with stage II-IIIA cancer was approximately 70%. Patients were stratified at randomization by stage (IB vs II vs IIIA), mutation type (Ex19Del/L858R either alone or in combination with other EGFR mutations) as confirmed by a central laboratory using a tissue based test, and race (Asian/non-Asian).
Patients undergo regular CT scan (chest and abdomen including liver and adrenal glands) with additional anatomy imaging, as indicated by signs and symptoms of the patient, for disease recurrence. Disease free survival (DFS) shall be measured from the date of randomization until date of disease recurrence or death (from any cause) in the absence of recurrence by investigational site assessment.
Male and female patients aged 18 years and over (patients from Japan/Taiwan aged at least 20 years) with histologically confirmed diagnosis of primary non-squamous non-small cell carcinoma of the lung, with complete surgical resection of the primary tumour, and who were classified post-operatively as stage IB, II or IIIA on the basis of pathologic criteria were eligible for this study (stage IB patients were excluded in Japan). Recruitment of patients with stage IB disease was closed when approximately 210 (30%) had been randomized and recruitment of patients with stage II-IIIA disease was closed when approximately […] (70%) had been randomized. Patients were confirmed to have a tumour that harbours one of the most common EGFR mutations known to be associated with EGFR-TKI sensitivity (Ex19Del; L858R) either alone or in combination with other EGFR mutations as confirmed by a central test.
Treatment with AZD9291 (80 mg once daily) or placebo commenced following randomization. Patients will continue on randomised treatment until recurrence of disease, treatment discontinuation criterion is met or treatment is completed.
AZD9291 (80 mg orally, once daily) or matching placebo, in accordance with the randomization schedule, was administered.
Disease-free survival is the primary endpoint in this study and is defined as the time from the date of randomization until the date of disease recurrence or death from any cause in the absence of disease recurrence. Disease recurrence is defined as evidence of disease recurrence on CT or MRI scan and/or pathological disease on biopsy by investigational site assessment. The primary population is the stage II/IIIA patients.
DFS rate at 2, 3, 4 and 5 years is defined as the proportion of patients alive and disease free at 2, 3, 4 and 5 years, respectively, estimated from Kaplan Meier plots of the primary endpoint of DFS at the time of the primary analysis.
DFS in the subset of patients with stage II-IIIA cancer will be analysed using a log rank test stratified by stage (II, IIIA), mutation type (Ex19Del, L858R either alone or in combination with other EGFR mutations) and race (Asian, Non-Asian) for the generation of the p-value and using the Breslow approach for handling ties.

[2] = system: patients with advanced mutation-positive EGFR (Ex19del or L858R) NSCLC; conditions: cited from earlier work
[3] = Stage IB/II/IIIA (overall population)
[4] = Stage IB/II/IIIA (overall population), listed as osimertinib
[5] = Stage II/IIIA patient population, immature OS (5% maturity)
[6] = patients with CNS metastases on a baseline brain scan, vs standard EGFR-TKIs

Compound: C=CC(=O)Nc1cc(Nc2nccc(-c3cn(C)c4ccccc34)n2)c(OC)cc1N(C)CCN(C)C [Osimertinib, N-(2-{2-dimethylaminoethyl-methylamino}-4-methoxy-5-{[4-(1-methylindol-3-yl)pyrimidin-2-yl]amino}phenyl) prop-2-enamide]
- 2 year DFS rate, % (95% CI) ([1]; Adjuvant chemotherapy received): 88.3%
- 2 year DFS rate, % (95% CI) ([1]; No adjuvant chemotherapy): 89.2%
- 2 year DFS rate, % (95% CI) ([1]; Stage IB): 87 (77, 93) %
- Median DFS, months (95% CI) ([1]; Stage IB): NR (NC, NC)
- 2 year DFS rate, % (95% CI) [1, 3]: 88.8%
- 2 year DFS rate, % (95% CI) [1, 4]: 89%
- 2 year DFS rate, % (95% CI) ([1]; Stage II): 91 (82, 95)^ %
- Median DFS, months (95% CI) ([1]; Stage II): NR (NC, NC)
- 2 year DFS rate, % (95% CI) ([1]; Stage II-IIIA): 89.5%
- deaths (% of patients) [1, 5]: 3%
- deaths (number of patients) [1, 5]: 8 deaths
- 2 year DFS rate, % (95% CI) ([1]; Stage IIIA): 88 (79, 94)^ %
- Median DFS, months (95% CI) ([1]; Stage IIIA): 38.8 (38.6, NC)^ months
- overall survival (in words) ([1]; immature OS (5% maturity)): trend towards survival favouring osimertinib
- DFS HR (95% CI) ([1]; Stage IB): 0.50 (0.27, 0.94)
- DFS HR (95% CI) [1, 3]: 0.21 (0.16, 0.28);
- DFS HR (95% CI) [1, 4]: 0.21
- DFS HR (95% CI) ([1]; Stage II): 0.17 (0.08, 0.31)
- DFS HR (95% CI) ([1]; Stage II-IIIA): 0.17 (0.12, 0.23);
- DFS HR (95% CI) ([1]; Stage II-IIIA, listed as osimertinib): 0.17 (0.12, 0.23)
- DFS HR (95% CI) ([1]; Stage IIIA): 0.12 (0.07, 0.20)
- DFS HR (95% CI) ([1]; adjuvant chemotherapy received): 0.17
- DFS HR (95% CI) ([1]; no adjuvant chemotherapy): 0.17
- reduction in the risk of disease recurrence or death ([1]; overall population): 79%
- reduction in the risk of disease recurrence or death ([1]; primary population of stage II/IIIA patients): 83%
- improvement in DFS (in words) ([1]; regardless of whether patients received prior adjuvant chemotherapy): consistent improvement in DFS
- improvement in disease free survival (DFS) (in words) ([1]; stage IB/II/IIIA EGFRm NSCLC, adjuvant setting): statistically significant and clinically meaningful improvement
- median overall survival ([2]; first-line therapy): 38.6 months
- median progression free survival (PFS) ([2]; first-line therapy): 18.9 months
- events of CNS progression, % patients ([2]; irrespective of known or treated CNS metastases at trial entry): 6%
- hazard ratio for death ([2]; osimertinib vs comparator group): 0.80
- PFS hazard ratio (HR) ([2]; osimertinib vs erlotinib or gefitinib): 0.46
- median CNS PFS ([2]; patients with CNS metastases on a baseline brain scan): not reached
- CNS PFS HR [2, 6]: 0.48
- reduction in the risk of CNS progression [2, 6]: 52%
